Consider three compounds from PMC3577862, “A Multiple Reaction Monitoring (MRM) Method to Detect Bcr-Abl Kinase Activity in CML Using a Peptide Biosensor” (PLoS ONE, 2013).

The subject of data set [1] is chronic myelogenous leukemia (CML) patients. To be noted: CML patients on imatinib; cited from earlier work. The text has this: [1] […] Approximately 90% of CML patients achieve initial remission with ...
Data set [2] addresses T1, Bcr-Abl (Homo sapiens, UniProt P00519+P11274). Briefly: Cell-based biosensor assay, MRM (LC-MS/MS) detection of biosensor phosphorylation. To be noted: for phosphorylated peptide detected by MRM (in words): biosensor 5 min, alone or with imatinib or pervanadate; for phosphorylated peptide detected by MRM (in words) / phosphopeptide, 580-480 transition / unphosphorylated peptide, 540-604 transition / phosphopeptide, 580-604 transition / unphosphorylated peptide, 540-767 transition: 1 µg lysate; for phosphopeptide, 580-480 transition / unphosphorylated peptide, 540-604 transition / phosphopeptide, 580-604 transition / unphosphorylated peptide, 540-767 transition / %phospho: K562, 5 min; for phosphopeptide, 580-604 transition / unphosphorylated peptide, 540-767 transition: transition not chosen for quantitation; for %phospho: from fmol of 580-480 and 540-604.

Data set [3] has as its target T1, Bcr-Abl. Briefly: Cell-based biosensor assay, Western blot detection (4G10 antiphosphotyrosine / streptavidin). Also noted: applied here to the disease-relevant, patient-derived CML model cell line K562; BCR N-terminal portion (fusion partner, human BCR P11274); endogenous in cells; host or cells: K562 (human CML cell line). To be noted: 25 µM peptide alone, + 10 µM imatinib (1 h pre-incubation) or + 1 µM pervanadate; 5, 30, 60 min; N = 3. As to the method: Samples of equal protein content (100 µg/lane) were diluted into Laemmli buffer and subjected to SDS-PAGE. Proteins were transferred to nitrocellulose membrane and analyzed by Western blotting. Membranes were split at the 15 kD mark and blocked in 3% milk in TBS-T overnight at 4°C, followed by blotting with the indicated antibodies in 3% milk/TBS-T. The bottom membrane was blotted with: DyLight-649 labeled Streptavidin (1∶1000, ThermoFisher Pierce) to detect total biosensor; 4G10 α-phosphotyrosine antibody to detect the phosphorylated biosensor. […] Signals of immunoblots were visualized using the Odyssey system (LiCOR Biosciences, Lincoln, NE), quantified using densitometry with Quantity One (Bio-Rad), and analyzed with GraphPad Prism software.
We based the peptide biosensor assay for Bcr-Abl/Abl kinase activity on our previously reported methodology, [17], [18] applied here to the disease-relevant, patient-derived CML model cell line K562. […] Lysates were processed as described in the Experimental Procedures, separated by SDS-PAGE and analyzed by Western blot using a two-color LiCOR scanner for quantitative detection of IR-dye labeled secondary antibodies and streptavidin (to measure total peptide signal via the biotinylated residue).
A general note: A western blot detects proteins with antibodies after separation by electrophoresis.

[4] abbreviates: biological replicate 1, P, P+G, P+V treatments.
The mark [5] stands for this setting: biological replicate 2, P, P+G, P+V treatments.
Setting [6] is: biological replicate 3, P, P+G, P+V treatments.

T1 sequence (P11274+P00519 fused): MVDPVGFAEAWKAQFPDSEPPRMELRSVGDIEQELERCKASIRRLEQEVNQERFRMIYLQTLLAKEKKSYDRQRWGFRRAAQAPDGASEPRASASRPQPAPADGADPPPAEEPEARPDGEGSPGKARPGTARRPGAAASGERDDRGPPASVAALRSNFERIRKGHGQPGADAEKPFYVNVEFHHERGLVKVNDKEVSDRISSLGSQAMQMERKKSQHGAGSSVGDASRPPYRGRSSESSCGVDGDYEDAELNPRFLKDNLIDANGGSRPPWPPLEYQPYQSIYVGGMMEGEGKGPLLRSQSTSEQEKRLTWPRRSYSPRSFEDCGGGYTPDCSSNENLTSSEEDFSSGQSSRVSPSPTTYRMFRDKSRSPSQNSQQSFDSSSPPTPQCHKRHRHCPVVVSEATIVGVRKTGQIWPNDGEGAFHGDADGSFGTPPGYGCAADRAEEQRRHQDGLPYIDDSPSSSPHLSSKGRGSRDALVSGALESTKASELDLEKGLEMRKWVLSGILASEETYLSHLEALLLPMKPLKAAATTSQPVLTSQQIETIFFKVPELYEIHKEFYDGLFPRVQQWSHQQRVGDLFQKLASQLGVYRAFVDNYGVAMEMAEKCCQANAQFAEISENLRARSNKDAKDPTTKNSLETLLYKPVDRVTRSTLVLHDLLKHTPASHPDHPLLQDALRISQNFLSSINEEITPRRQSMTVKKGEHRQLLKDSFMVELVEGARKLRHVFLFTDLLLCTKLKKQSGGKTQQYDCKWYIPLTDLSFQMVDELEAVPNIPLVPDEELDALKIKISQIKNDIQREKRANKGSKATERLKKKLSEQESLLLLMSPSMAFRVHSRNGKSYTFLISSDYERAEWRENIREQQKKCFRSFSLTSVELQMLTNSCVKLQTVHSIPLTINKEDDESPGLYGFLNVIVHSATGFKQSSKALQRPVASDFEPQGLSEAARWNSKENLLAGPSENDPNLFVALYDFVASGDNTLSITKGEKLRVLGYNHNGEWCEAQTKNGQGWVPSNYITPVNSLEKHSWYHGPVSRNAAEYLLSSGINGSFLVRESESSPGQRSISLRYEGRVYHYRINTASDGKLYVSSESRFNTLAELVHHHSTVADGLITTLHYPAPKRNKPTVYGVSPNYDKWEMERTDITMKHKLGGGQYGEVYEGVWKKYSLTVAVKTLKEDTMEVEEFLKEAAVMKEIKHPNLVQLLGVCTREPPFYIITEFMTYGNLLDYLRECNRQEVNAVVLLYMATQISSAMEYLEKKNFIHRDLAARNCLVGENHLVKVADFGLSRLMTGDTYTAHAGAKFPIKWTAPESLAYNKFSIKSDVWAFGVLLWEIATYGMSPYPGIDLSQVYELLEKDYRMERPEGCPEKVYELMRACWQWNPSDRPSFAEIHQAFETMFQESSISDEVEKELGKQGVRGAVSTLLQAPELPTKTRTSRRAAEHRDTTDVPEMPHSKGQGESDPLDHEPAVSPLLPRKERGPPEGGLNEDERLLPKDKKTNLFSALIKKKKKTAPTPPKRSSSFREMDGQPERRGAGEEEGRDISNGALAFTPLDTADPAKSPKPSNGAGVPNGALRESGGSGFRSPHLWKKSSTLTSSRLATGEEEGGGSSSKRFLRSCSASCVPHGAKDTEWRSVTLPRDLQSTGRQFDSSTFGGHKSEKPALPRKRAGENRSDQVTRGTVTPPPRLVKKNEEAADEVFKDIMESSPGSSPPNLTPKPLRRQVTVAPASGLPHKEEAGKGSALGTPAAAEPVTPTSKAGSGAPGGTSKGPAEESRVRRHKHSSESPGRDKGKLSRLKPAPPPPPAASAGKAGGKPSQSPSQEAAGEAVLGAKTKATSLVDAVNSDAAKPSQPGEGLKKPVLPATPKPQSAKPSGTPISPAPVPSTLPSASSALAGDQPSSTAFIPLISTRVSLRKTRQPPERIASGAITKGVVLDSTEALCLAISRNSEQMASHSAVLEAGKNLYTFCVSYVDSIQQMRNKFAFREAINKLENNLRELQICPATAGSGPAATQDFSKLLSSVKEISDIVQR
Method for K562 cells: Biosensor peptide from samples generated as described above (in the Cell-based biosensor assay section) was captured using streptavidin-coated MagneSpheres (Promega Corporation, Madison, WI). The beads (20 µl) were prepared by washing with 0.1% Octyl-β-glucoside/PBS (3×150 µl). K562 cell lysates (200 µg total protein) were incubated with the beads on a shaker (600 rpm, 60 min). Beads were captured using a MagnaBot 96-well magnetic capture device (Promega) and washed with 0.1% Octyl-β-glucoside/PBS (3×150 µl) and deionized water (3×150 µl). Peptide was eluted using 15 µL sample buffer (ACN/H2O/TFA, 50%/50%/0.1%). 0.5 µL from each sample was co-spotted with α-cyano-4-hydroxycinnamic acid (10% w/v) containing ammonium dihydrogen phosphate (5 mg/ml), [22] dried and analyzed on a 4800 MALDI-TOF/TOF Analyzer (ABSciex). Selected ions were analyzed by MS/MS (specifying the parent ion mass for selection and CID) and sequenced de novo.
Peptide in lysates was enriched using streptavidin-coated magnetic nanoparticles through the peptide’s biotinylated reporter segment.

For `Cc1ccc(NC(=O)c2ccc(CN3CCN(C)CC3)cc2)cc1Nc1nccc(-c2cccnc2)n1` [imatinib], in data set [1], the “CML patients achieving initial remission with imatinib” value is recorded as “Approximately 90%”, the “patients who never respond or develop recurrent and/or resistant disease (relapse within a few years; 1–5 years of starting treatment)” value is “approximately 30%” and the “patients whose remission remains stable for a long period of time” value is listed as approximately 70%.
For “EAIYAAPFAKKK(γ-biotin)G-βNpa-GCGGAPTYSPPPPPGGRKKRRQRRRLL [Peptide]”, the “site of degradation of the biosensor in cells” value with K562 cells was “C-terminal degradation”. Further, at Bcr-Abl [2] (K562 cells, 25 µM peptide alone, 5 min, unphosphorylated plus phosphorylated, per µg of digested lysate, MRM, mean ±SD of three replicate biological experiments), the “Total (fmol), Peptide only” value was determined as 28 ± 5 fmol. The “phosphorylated peptide detected by MRM (in words)” value at Bcr-Abl [2] (K562 cells) is “both unphosphorylated and phosphorylated peptides were detected”. Further, the “phosphorylation of the biosensor peptide in K562 cells (Western blot, 4G10)” value at Bcr-Abl [3] was “phosphorylated”.
In the case of pervanadate, the “Unphospho (fmol), Peptide+pervanadate” value on Bcr-Abl [2] (K562 cells, 25 µM peptide + 1 µM pervanadate, 5 min, 540→604, per µg of digested lysate, mean ±SD of three replicates) is 14 ± 0.6 fmol. The “Phospho (fmol), Peptide+pervanadate” value on Bcr-Abl [2] (K562 cells, 25 µM peptide + 1 µM pervanadate, 5 min, 580→480, per µg of digested lysate, mean ±SD of three replicates) was 17 ± 12 fmol. Moreover, the “% phospho, Peptide+pervanadate” value at Bcr-Abl [2] (K562 cells, 25 µM peptide + 1 µM pervanadate, 5 min, MRM, mean ±SD of three replicates) is 52±16%. Also, the “Total (fmol), Peptide+pervanadate” value on Bcr-Abl [2] (K562 cells, 25 µM peptide + 1 µM pervanadate, 5 min, unphosphorylated plus phosphorylated, per µg of digested lysate, mean ±SD of three replicates) came to 31 ± 13 fmol. Further, the “phosphorylated peptide detected by MRM (in words)” value at Bcr-Abl [2] (K562 cells) is on record as “higher levels”. The “phosphopeptide, 580-480 transition” value at Bcr-Abl [2] (biological replicate 1, P = peptide alone, P+G = + imatinib, P+V = + pervanadate, corrected AUC x 1/slope) was 31.582 fmol. Moreover, on Bcr-Abl [2] (setting [4]), the “unphosphorylated peptide, 540-604 transition” value is given as 14.1586 fmol; the “phosphopeptide, 580-604 transition” value is recorded as 42.5934 fmol; the “unphosphorylated peptide, 540-767 transition” value was 15.6618 fmol; the “%phospho” value is given as 69.0458%. For the same compound, at Bcr-Abl [2] (setting [5]), the “phosphopeptide, 580-480 transition” value amounted to 10.229 fmol; the “unphosphorylated peptide, 540-604 transition” value is reported as 12.9195 fmol; the “phosphopeptide, 580-604 transition” value amounted to 16.5395 fmol; the “unphosphorylated peptide, 540-767 transition” value amounted to 12.6668 fmol. For the same compound, the “%phospho” value on Bcr-Abl [2] (setting [5]) amounted to 44.1886%. Also, at Bcr-Abl [2] (setting [6]), the “phosphopeptide, 580-480 transition” value was found to be 10.3517 fmol; the “unphosphorylated peptide, 540-604 transition” value is 13.5084 fmol; the “phosphopeptide, 580-604 transition” value is 16.6663 fmol; the “unphosphorylated peptide, 540-767 transition” value was 11.085 fmol. For the same compound, the “%phospho” value at Bcr-Abl [2] (setting [6]) worked out at 43.385%. On Bcr-Abl [3], the “phosphorylation of the biosensor peptide in K562 cells (Western blot, 4G10)” value is “stabilized”.
